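Five compound concentrations were applied to cells in 96-well plates for 48 hours; endpoints were derived by simple linear interpolation of the resulting dose-response curve. GI50 marks 50% less growth.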 Calls of active or inactive are those of the source. Cut-off read from the data, not from the text of the source: active = GI50 up to about 1.1 µM and inactive = higher.
Legend:
Assay in all cases: NCI anticancer screen, dose series, 48 h
ACHN = test system: ACHN
CCRF-CEM = test system: CCRF-CEM
COLO 205 = test system: COLO 205
DMS-114 = test system: DMS-114
HCT-116 = test system: HCT-116
HL-60 = test system: HL-60
HOP-62 = test system: HOP-62
HOP-92 = test system: HOP-92
HT-29 = test system: HT-29
IGROV-1 = test system: IGROV-1
K562 = test system: K562
KM-20L2 = test system: KM-20L2
KM12 = test system: KM12
LXFL 529 = test system: LXFL 529
M14 = test system: M14
M19-MEL = test system: M19-MEL
Malme-3M = test system: Malme-3M
NCI-H23 = test system: NCI-H23
NCI-H460 = test system: NCI-H460
NCI-H522 = test system: NCI-H522
OVCAR-3 = test system: OVCAR-3
OVCAR-4 = test system: OVCAR-4
OVCAR-5 = test system: OVCAR-5
RPMI-8226 = test system: RPMI-8226
RXF 393 = test system: RXF 393
SF-268 = test system: SF-268
SF-295 = test system: SF-295
SF-539 = test system: SF-539
SK-MEL-28 = test system: SK-MEL-28
SK-MEL-2 = test system: SK-MEL-2
SK-OV-3 = test system: SK-OV-3
SNB-19 = test system: SNB-19
SNB-75 = test system: SNB-75
SNB-78 = test system: SNB-78
SR = test system: SR
U-251 = test system: U-251
UACC-257 = test system: UACC-257
UACC-62 = test system: UACC-62
UO-31 = test system: UO-31
786-0 = test system: 786-0
A498 = test system: A498
A549 = test system: A549
BT-549 = test system: BT-549
CAKI-1 = test system: CAKI-1
DU-145 = test system: DU-145
EKVX = test system: EKVX
HCC 2998 = test system: HCC 2998
Hs-578T = test system: Hs-578T
LOX IMVI = test system: LOX IMVI
MCF7 = test system: MCF7
MDA-MB-231 = test system: MDA-MB-231
MDA-MB-435 = test system: MDA-MB-435
MDA-N = test system: MDA-N
MOLT-4 = test system: MOLT-4
NCI-H226 = test system: NCI-H226
NCI/ADR-RES = test system: NCI/ADR-RES
OVCAR-8 = test system: OVCAR-8
PC-3 = test system: PC-3
SK-MEL-5 = test system: SK-MEL-5
SN12C = test system: SN12C
SW-620 = test system: SW-620
T47D = test system: T47D
TK-10 = test system: TK-10
HCT-15 = test system: HCT-15

In the case of `CCc1c(O)c(O)c(C(C)=O)c2c(O)c(-c3c(C)cc4c(CC)c(O)c(O)c(C(C)=O)c4c3O)c(C)cc12`, the GI50 (ACHN) is reported as 12 µM (inactive), the GI50 (CCRF-CEM) is reported as 2.7 µM (inactive) and the GI50 (COLO 205) is reported as 6.79 µM (inactive). For the same compound, the GI50 (DMS-114) was 5.35 µM (inactive), the GI50 (HCT-116) was 4.17 µM (inactive) and the GI50 (HL-60) was 3.08 µM (inactive). The GI50 (HOP-62) was 13.7 µM (inactive), the GI50 (HOP-92) was 2.78 µM (inactive) and the GI50 (HT-29) was 5.15 µM (inactive). The GI50 (IGROV-1) was 5.52 µM (inactive), the GI50 (K562) was 2.62 µM (inactive) and the GI50 (KM-20L2) was 4.69 µM (inactive). The GI50 (KM12) was 3.74 µM (inactive), the GI50 (LXFL 529) was 4.56 µM (inactive) and the GI50 (M14) was 8.75 µM (inactive). For the same compound, the GI50 (M19-MEL) was 11.2 µM (inactive), the GI50 (Malme-3M) was 16.7 µM (inactive) and the GI50 (NCI-H23) was 2.82 µM (inactive). The GI50 (NCI-H460) was 7.73 µM (inactive), the GI50 (NCI-H522) was 2.92 µM (inactive) and the GI50 (OVCAR-3) was 5.05 µM (inactive). For the same compound, the GI50 (OVCAR-4) was 11.2 µM (inactive), the GI50 (OVCAR-5) was 18.9 µM (inactive) and the GI50 (RPMI-8226) was 3.97 µM (inactive). The GI50 (RXF 393) was 6.85 µM (inactive), the GI50 (SF-268) was 11 µM (inactive) and the GI50 (SF-295) was 3.03 µM (inactive). For the same compound, the GI50 (SF-539) was 9.04 µM (inactive), the GI50 (SK-MEL-28) was 10.9 µM (inactive) and the GI50 (SK-MEL-2) was 7.53 µM (inactive). For the same compound, the GI50 (SK-OV-3) was > 10 µM (inactive), the GI50 (SNB-19) was 7.67 µM (inactive) and the GI50 (SNB-75) was 14.1 µM (inactive). The GI50 (SNB-78) was 2.9 µM (inactive), the GI50 (SR) was 38.3 µM (inactive) and the GI50 (U-251) was 8.77 µM (inactive). The GI50 (UACC-257) was 11.1 µM (inactive), the GI50 (UACC-62) was 7.21 µM (inactive) and the GI50 (UO-31) was 6.49 µM (inactive).
`CCCn1c2c(c3ccccc3c1=O)C(=O)c1ccccc1-2` was tested, and the GI50 (786-0) was 16.4 µM (inactive), the GI50 (A498) was > 48.4 µM (inactive) and the GI50 (A549) was 36.4 µM (inactive). The GI50 (ACHN) was 53.6 µM (inactive), the GI50 (BT-549) was > 100 µM (inactive) and the GI50 (CAKI-1) was 48.3 µM (inactive). The GI50 (CCRF-CEM) was > 56.2 µM (inactive), the GI50 (COLO 205) was > 54.6 µM (inactive) and the GI50 (DU-145) was > 48.2 µM (inactive). For the same compound, the GI50 (EKVX) was > 76.7 µM (inactive), the GI50 (HCC 2998) was > 100 µM (inactive) and the GI50 (HCT-116) was 25.2 µM (inactive). For the same compound, the GI50 (HL-60) was 1.78 µM (inactive), the GI50 (HOP-62) was 14.1 µM (inactive) and the GI50 (HOP-92) was > 57.4 µM (inactive). For the same compound, the GI50 (HT-29) was > 29.8 µM (inactive), the GI50 (Hs-578T) was 44.5 µM (inactive) and the GI50 (IGROV-1) was > 57.7 µM (inactive). For the same compound, the GI50 (K562) was > 100 µM (inactive), the GI50 (KM12) was 20.7 µM (inactive) and the GI50 (LOX IMVI) was > 100 µM (inactive). For the same compound, the GI50 (M14) was 68.1 µM (inactive), the GI50 (MCF7) was > 42.4 µM (inactive) and the GI50 (MDA-MB-231) was > 40.4 µM (inactive). For the same compound, the GI50 (MDA-MB-435) was > 100 µM (inactive), the GI50 (MDA-N) was > 100 µM (inactive) and the GI50 (MOLT-4) was 3.61 µM (inactive). For the same compound, the GI50 (Malme-3M) was 76.7 µM (inactive), the GI50 (NCI-H226) was > 46.5 µM (inactive) and the GI50 (NCI-H23) was > 68.9 µM (inactive). The GI50 (NCI-H460) was 7.23 µM (inactive), the GI50 (NCI-H522) was 2.37 µM (inactive) and the GI50 (NCI/ADR-RES) was > 100 µM (inactive). For the same compound, the GI50 (OVCAR-3) was > 100 µM (inactive), the GI50 (OVCAR-4) was > 100 µM (inactive) and the GI50 (OVCAR-5) was > 100 µM (inactive). For the same compound, the GI50 (OVCAR-8) was 61.1 µM (inactive), the GI50 (PC-3) was > 100 µM (inactive) and the GI50 (RPMI-8226) was > 28.8 µM (inactive). For the same compound, the GI50 (RXF 393) was 82.4 µM (inactive), the GI50 (SF-268) was > 73.1 µM (inactive) and the GI50 (SF-295) was > 80.5 µM (inactive). For the same compound, the GI50 (SF-539) was > 55.2 µM (inactive), the GI50 (SK-MEL-28) was > 68.9 µM (inactive) and the GI50 (SK-MEL-2) was > 100 µM (inactive). For the same compound, the GI50 (SK-MEL-5) was 11.2 µM (inactive), the GI50 (SK-OV-3) was > 100 µM (inactive) and the GI50 (SN12C) was > 62.4 µM (inactive). For the same compound, the GI50 (SNB-19) was > 100 µM (inactive), the GI50 (SNB-75) was > 48.8 µM (inactive) and the GI50 (SR) was 5.14 µM (inactive). For the same compound, the GI50 (SW-620) was > 53.5 µM (inactive), the GI50 (T47D) was > 54.1 µM (inactive) and the GI50 (TK-10) was 61.8 µM (inactive). The GI50 (U-251) was > 61.8 µM (inactive), the GI50 (UACC-257) was > 100 µM (inactive) and the GI50 (UACC-62) was > 100 µM (inactive). For the same compound, the GI50 (UO-31) was > 19.7 µM (inactive).
With `CC(C)NC(=O)OCc1c(COC(=O)NC(C)C)c(-c2cc[n+](COC(=O)C3CCCCC3)cc2)n2c1CCC2` the GI50 (786-0) was > 100 µM (inactive), the GI50 (A498) was > 100 µM (inactive) and the GI50 (A549) was > 100 µM (inactive). For the same compound, the GI50 (ACHN) was 44.9 µM (inactive), the GI50 (BT-549) was > 100 µM (inactive) and the GI50 (CAKI-1) was 50 µM (inactive). The GI50 (CCRF-CEM) was 44.8 µM (inactive), the GI50 (COLO 205) was > 100 µM (inactive) and the GI50 (DU-145) was > 100 µM (inactive). For the same compound, the GI50 (EKVX) was > 100 µM (inactive), the GI50 (HCC 2998) was > 100 µM (inactive) and the GI50 (HCT-116) was > 100 µM (inactive). For the same compound, the GI50 (HCT-15) was greater than 100 µM, the GI50 (HL-60) was 32.4 µM (inactive) and the GI50 (HOP-62) was > 100 µM (inactive). The GI50 (HOP-92) was > 100 µM (inactive), the GI50 (HT-29) was > 100 µM (inactive) and the GI50 (Hs-578T) was > 100 µM (inactive). The GI50 (IGROV-1) was > 100 µM (inactive), the GI50 (K562) was > 100 µM (inactive) and the GI50 (KM12) was > 100 µM (inactive). For the same compound, the GI50 (LOX IMVI) was > 100 µM (inactive), the GI50 (M14) was > 100 µM (inactive) and the GI50 (MCF7) was 83.4 µM (inactive). For the same compound, the GI50 (MDA-MB-231) was > 100 µM (inactive), the GI50 (MDA-MB-435) was > 100 µM (inactive) and the GI50 (MDA-N) was > 100 µM (inactive). For the same compound, the GI50 (MOLT-4) was 40.8 µM (inactive), the GI50 (Malme-3M) was > 100 µM (inactive) and the GI50 (NCI-H226) was > 100 µM (inactive). For the same compound, the GI50 (NCI-H23) was > 100 µM (inactive), the GI50 (NCI-H460) was 70 µM (inactive) and the GI50 (NCI-H522) was > 100 µM (inactive). The GI50 (NCI/ADR-RES) was > 100 µM (inactive), the GI50 (OVCAR-3) was > 100 µM (inactive) and the GI50 (OVCAR-4) was > 100 µM (inactive). For the same compound, the GI50 (OVCAR-5) was > 100 µM (inactive), the GI50 (OVCAR-8) was > 100 µM (inactive) and the GI50 (PC-3) was > 100 µM (inactive). For the same compound, the GI50 (RPMI-8226) was > 100 µM (inactive), the GI50 (RXF 393) was > 100 µM (inactive) and the GI50 (SF-268) was 91.2 µM (inactive). For the same compound, the GI50 (SF-295) was > 100 µM (inactive), the GI50 (SF-539) was 21.9 µM (inactive) and the GI50 (SK-MEL-28) was > 100 µM (inactive). The GI50 (SK-MEL-2) was > 100 µM (inactive), the GI50 (SK-MEL-5) was > 100 µM (inactive) and the GI50 (SK-OV-3) was > 100 µM (inactive). For the same compound, the GI50 (SN12C) was > 100 µM (inactive), the GI50 (SNB-19) was > 100 µM (inactive) and the GI50 (SNB-75) was 43.4 µM (inactive). The GI50 (SR) was 9.25 µM (inactive), the GI50 (SW-620) was > 100 µM (inactive) and the GI50 (T47D) was > 100 µM (inactive). For the same compound, the GI50 (TK-10) was > 100 µM (inactive), the GI50 (U-251) was > 100 µM (inactive) and the GI50 (UACC-257) was > 100 µM (inactive). For the same compound, the GI50 (UACC-62) was 99.8 µM (inactive) and the GI50 (UO-31) was > 100 µM (inactive).

— ChEMBL document CHEMBL1201862, “PubChem BioAssay data set” (2004)
